In article PMC5482804, “YvcK, a protein required for cell wall integrity and optimal carbon source utilization, binds uridine diphosphate-sugars” (Scientific Reports, 2017):

Assays:
YvcK [1] = biological target: T1, YvcK (Bacillus subtilis, UniProt O06974); test: thermal shift assay (SYPRO Orange) with apparent KD; limited trypsin proteolysis; assay type: binding
T1 construct: gene mgfK; His6-tagged YvcK

YvcK [2] = biological target: T1, YvcK; test: thermal shift assay (SYPRO Orange) with apparent KD; assay type: binding

T1 sequence (O06974 whole entry): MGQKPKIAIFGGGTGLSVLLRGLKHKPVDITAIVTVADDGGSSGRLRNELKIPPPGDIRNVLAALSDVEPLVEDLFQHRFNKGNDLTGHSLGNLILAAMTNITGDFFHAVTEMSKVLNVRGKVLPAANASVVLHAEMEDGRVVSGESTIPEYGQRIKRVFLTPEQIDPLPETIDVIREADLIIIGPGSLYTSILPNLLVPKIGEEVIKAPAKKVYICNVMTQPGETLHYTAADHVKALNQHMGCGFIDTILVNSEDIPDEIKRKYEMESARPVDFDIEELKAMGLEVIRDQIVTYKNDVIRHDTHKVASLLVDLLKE

Row | SMILES | Kd (YvcK [1]) [mM] | Kd (YvcK [2]) [mM]
1 | CC(=O)N[C@H]1[C@@H](OP(=O)(O)OP(=O)(O)OC[C@H]2O[C@@H](n3ccc(=O)[nH]c3=O)[C@H](O)[C@@H]2O)O[C@H](CO)[C@@H](O)[C@@H]1O [UDP-GlcNAc] | 0.41 ± 0.24 | 
2 | O=c1ccn([C@@H]2O[C@H](COP(=O)(O)OP(=O)(O)O)[C@@H](O)[C@H]2O)c(=O)[nH]1 [UDP] |  | 6.21 ± 0.62
